In paper PMC8370201, “Amaryllidaceae Alkaloid Cherylline Inhibits the Replication of Dengue and Zika Viruses” (Antimicrobial Agents and Chemotherapy, 2021):
Entries after “also recorded” stand apart in the source; their conditions may differ. Where two headings read alike, the source gives them in different places.

Columns and labels:
DENVGFP [1] = experiment: Time-of-drug-addition and -removal assays, DENVGFP in Huh7 cells; type: cell-based, dengue virus (DENV); details: Huh7, treated 2 h prior to infection, removed 2 hpi, microscopy
Description: For the time-of-drug-addition assay, at the time of infection, AAs were added in wells corresponding to 0 h. At 2 hpi, viral inoculum was removed from every well, and AAs were added back to wells corresponding to 0 h and 2 h. At 4, 7, 12, and 24 hpi, AAs or DMSO diluted in DMEM was added to the appropriate wells. After 72 h, cells were trypsinized and fixed in 4% formaldehyde to measure the percentage of infected cells on an FC500 MPL cytometer. Alternatively, pictures of Hoechst 33342-stained cells were acquired on an Axio Observer microscope. All assays were performed in triplicate.
At 2 hpi, plates were washed, and medium was replaced to remove remaining viruses in the supernatant. AAs were added back to all wells, except the ones corresponding to 2 h of treatment, in which fresh medium exclusive of any AA was added. Accordingly, after 4, 7, and 12 h of infection, the supernatant was replaced by fresh medium in corresponding wells. After 72 h of incubation, results were acquired as for the time-of-drug-addition assay. All assays were performed in triplicate.

DENV2 16881s = experiment: Plaque assay, infectious titers of WT DENV2 16881s from Huh7.5 cells; type: cell-based, dengue virus (DENV); details: AAs 50 μM, treated 2 hpi, supernatant 48 h later
Description: Huh7.5 cells were infected with DENV 16881s, ZIKV H/PF/2013, or ZIKV MR766 (MOI, 0.1) or left uninfected. […] Supernatants were harvested 2 days pi, and PFU were determined by plaque assay on VeroE6 cells. Cells incubated overnight (2 × 10^5 cells/well in 24-well plates) were infected with 10-fold serially diluted virus-containing supernatants for 2 h at 37°C. Inoculum was then replaced with MEM (Life Technologies) containing 1.5% carboxymethylcellulose (Millipore-Sigma). ZIKV- and DENV-infected cells were incubated for 5 and 7 days, respectively. One volume of 10% formaldehyde was added to the cells for fixation. Two hours later, cells were washed with tap water and stained with a 1% crystal violet/10% ethanol solution for 30 min. Wells were rinsed with tap water, and the number of plaques were counted to calculate virus titers.

DENVGFP [2] = experiment: DENVGFP reporter virus infection of Huh7 cells (flow cytometry / microscopy); details: for anti-DENV activity in screening (GFP microscopy, words): Huh7, treated 2 h before DENVGFP MOI 0.15, 72 hpi, at the chosen concentration
ZIKV MR766 = experiment: Plaque assay, infectious titers of WT ZIKV MR766 from Huh7.5 cells; type: cell-based, Zika virus (ZIKV); details: treated 2 hpi, supernatant 48 h later
ZIKVR2A [3] = experiment: microbe, parasite or virus in culture; details: Zika virus, Huh7.5, read-out: EC50 (μM) for ZIKVR2A, Huh7.5 cells, luciferase at 48 hpi
ZIKV H/PF/2013 = experiment: Plaque assay, infectious titers of WT ZIKV H/PF/2013 from Huh7.5 cells; type: cell-based, Zika virus (ZIKV); details: treated 2 hpi, supernatant 48 h later
DENVR2A [4] = details: CC50/EC50, Huh7.5
[5] = Cell viability (ATP, Cell-Titer GLO) in Huh7.5 cells; type: cell-based; details: human
Description: Where indicated for Huh7.5 and Vero E6 cells and PBMCs, cell viability was measured by monitoring of cellular ATP levels using the Cell-Titer GLO assay kit (Promega). Briefly, 10× 10^3 to 20 × 10^3 cells in 50 to 100 μl were seeded in 48-well or 96-well plates and cultured overnight. AAs were added at the designated concentrations for 24 or 48 h, as specified in the text. Then, 50 to 100 μl of room temperature Cell-Titer GLO reagent was added in each well to room temperature-equilibrated cell plates. Plates were rocked for 2 min and rested for 10 min, and the luminescence signal was measured using a microplate spectrophotometer (Biotek Synergy H1 or Tecan Spark multimode microplate reader). Viability was expressed as a fold change calculated using the value of DMSO-treated cells at each concentration; for each AA and CC50, values were determined.

ZIKVR2A [6] = details: for SI ZIKVR2A (therapeutic selectivity index): CC50/EC50, Huh7.5; for ZIKVR2A replication: Huh7.5 cells
DENVR2A [7] = experiment: microbe, parasite or virus in culture; details: Dengue virus, Huh7.5, read-out: EC50 (μM) for DENVR2A
Huh7 cells = experiment: XTT cytotoxicity assay in Huh7 cells; type: cell-based, human; details: 0.4 to 400 μM, 72 hours
Description: Cytotoxicity properties were titrated by metabolism monitoring using the XTT [2,3-bis-(2-methoxy-4-nitro-5-sulfophenyl)-2H-tetrazolium-5-carboxanilide] assay kit (Roche, Millipore Sigma), as described before ([24]). Briefly, Huh7 cells were seeded at 10 × 10^3 cells per well in 96-well plates. […] After 72 h of incubation, medium was replaced by phenol-free DMEM (Wisent) containing 0.3 mg/ml XTT, and cells were incubated for 4 h. Absorbance was measured at 450nm using a microplate spectrophotometer (Synergy H1, Biotek). Treatment conditions with 0.5% DMSO were used as the reference control. The percentage of cell viability was calculated at each concentration.

Row | SMILES | infection after removal of compound 2 hpi vs continuous treatment (DENVGFP [1]) | production of DENV infectious particles (words) (DENV2 16881s) | anti-DENV activity in screening (GFP microscopy, words) (DENVGFP [2]) | production of ZIKV MR766 infectious particles (words) (ZIKV MR766) | EC50 (ZIKVR2A [3]) [µM] | SI DENVR2A (therapeutic selectivity index) (DENVR2A [4]) | ZIKVR2A replication (ZIKVR2A [6]) | EC50 (DENVR2A [7]) [µM] | further results
1 | O[C@H]1C=C[C@@]23CCN(Cc4cc5c(cc42)OCO5)[C@@H]3C1 [Crinine, crinine] | restored virus replication completely | – | – | – | – | – | – | – | –
2 | OC1CC2N3CCC2(c2cc4c(cc2C3)OCO4)C2OC12 (stereo not shown) [Flexinine, flexinine] | restored virus replication completely | no effects on DENV production; also recorded: little effect | moderate | marginal effects on ZIKV production; also recorded: little effect | 216 | >3.9 | did not significantly impact ZIKVR2A replication | 63.4 | production of ZIKV H/PF/2013 infectious particles (words) (ZIKV H/PF/2013): marginal effects on ZIKV production; also recorded: little effect; CC50 at 48 h [5]: > 250 µM; SI ZIKVR2A (therapeutic selectivity index) (ZIKVR2A [6]): >1.15
3 | COc1cc2c(cc1OC)[C@@H](c1ccc(O)cc1)CN(C)C2 [Gigantelline, gigantelline] | – | – | weak | – | – | – | – | – | –
4 | COc1ccc([C@@H]2CN(C)Cc3cc(O)c(OC)cc32)cc1O [Gigantellinine, gigantellinine] | restored virus replication completely | little effect | moderate | little effect | > 250 | >2.3 | did not significantly impact ZIKVR2A replication | 105 | production of DENV infectious particles (words) (DENV2 16881s; listed as gigantellinine): no effects on DENV production; production of ZIKV MR766 infectious particles (words) (ZIKV MR766; listed as gigantellinine): marginal effects on ZIKV production; production of ZIKV H/PF/2013 infectious particles (words) (ZIKV H/PF/2013): little effect; production of ZIKV H/PF/2013 infectious particles (words) (ZIKV H/PF/2013; listed as gigantellinine): marginal effects on ZIKV production; CC50 at 48 h [5]: > 250 µM
5 | O=c1c2cc3c(cc2c2cccc4ccn1c42)OCO3 [Hippadine, hippadine] | restored virus replication completely | little effect | moderate | little effect | 114 | 2.38 | did not significantly impact ZIKVR2A replication | 73.8 | production of DENV infectious particles (words) (DENV2 16881s; listed as hippadine): no effects on DENV production; decrease in ZIKV H/PF/2013 viral titer (ZIKV H/PF/2013; AAs 50 μM): 3 fold; decrease in ZIKV H/PF/2013 viral titers (ZIKV H/PF/2013; AAs 50 μM): 70%; cytotoxic activity of AAs (Huh7 cells): cytotoxic; CC50 at 48 h ([5]; Huh7.5 cells, Huh7.5, ATP, 48 h posttreatment, read-out: CC50): 176 µM; SI ZIKVR2A (therapeutic selectivity index) (ZIKVR2A [6]): 1.54
6 | CN1CC[C@@]23C=C[C@H](O)C[C@@H]2Oc2c(O)ccc(c23)C1 [Sanguinine, sanguinine] | restored virus replication completely | – | very weak | – | – | – | – | – | –
7 | NC(=O)c1ncn([C@@H]2O[C@H](CO)[C@@H](O)[C@H]2O)n1 [ribavirin, reference compound] | – | – | – | – | – | – | – | – | EC50 (DENVGFP [2]; Dengue virus, Huh-7, read-out: EC50, DENVGFP infection): 100 µM
